Reference: patent US9822117B2, “Pyridoindolobenz[b,d]azepine derivatives and uses thereof” (Daya Drug Discoveries, Inc., priority 2013, dated 2017)

Experiments:
[1] = test system: mechanical allodynia (percent weight distribution of left hind paw); experiment: Complete Freund's Adjuvant (CFA)-induced model of inflammatory pain; type: in vivo; conditions: rats
Protocol: DDD-028 was evaluated in Complete Freund's Adjuvant (CFA)-induced model of inflammatory pain in rats as described by Stein et al., which is incorporated herein in its entirety. Fifteen male CD rats were used in this study. The animals were divided into three groups (vehicle, DDD-028, and indomethacin) containing 5 animals in each group. Baseline weight distribution of each animal in the groups was measured taken prior to CFA administration. Three readings were taken for each paw in each animal. Each reading was take over 3 seconds. Animals were lifted or the paws adjusted between each reading to ensure that animals were positioned correctly on the force pads. The percent weight bearing was calculated on the left leg for each reading. The mean of the three readings were then calculated for each animal. Following baseline measurements, the rats were anesthetized using 1-3% isofluorane, and were given subplantar injection of 0.1 mL of CFA into the left hind paw. Percent weight distributions of the left hind paws of each animal in the three groups were measured at 24 hours post-administration to determine the extent of mechanical allodynia. Animals were then weighed, allocated to the treatment group, and administered the test compound, DDD-028, the reference compound, indomethacin, or the vehicle. Weight distributions were measured at 15 min, 30 min, 60 min, and 120 min following administration of the drugs or vehicle.

[2] = test system: mechano-allodynia (paw withdrawal threshold); experiment: Sciatic nerve chronic constriction injury (CCI) model of neuropathic pain; type: in vivo, mice
Protocol: DDD-028 was evaluated in chronic constriction injury (CCI) model of neuropathic pain in mice as described by Bennett et al., which is incorporated herein in its entirety. Two male CDI mice (weighing 25-30 g at the time of surgery) were used in this study. The hydrochloride salt of DDD-028 was dissolved in distilled water at 0.15 mg/mL and was administered to the mice to the final dose of 1.0 mg/kg (3.5 gmol/kg) for oral administration (via gavage) or 0.3 mg/kg (1.2 gmol/kg) for intrathecal administration (injection) at peak mechano-allodynia. Baseline PWT measurements (pre-surgery) of the left-hind paw of each animal were taken prior to sciatic nerve ligation. The mice were then anesthetized with 3% isoflurane/100% O2 inhalation, and maintained on 2% isoflurane/100% O2 for the duration of surgery. The left thigh was shaved, scrubbed with Nolvasan, and a small incision (1-1.5 cm in length) was made in the middle of the lateral aspect of the left thigh to expose the sciatic nerve. The nerve was loosely ligated around the entire circumference of the nerve at three distinct sites (spaced 1 mm apart) using silk sutures. The surgical site was closed with a single muscle suture and a skin clip. Peak mechano-allodynia generally develops 7 […]. After 7 days post-surgery, Paw Withdrawal Threshold (PWT, g) measurements were taken for each animal to determine the extent of mechanical allodynia. PWT's were measured at 15 min, 30 min, 60 min, 120 min, and 180 min following administration of the drugs or vehicle. […] DDD-028 had no effect on PWT in contralateral paws.

Sigma σ2 receptor = Sigma σ2 receptor (Homo sapiens, UniProt Q5BJF2); experiment: Receptor binding, σ2
[3] = test system: mechanical allodynia (paw withdrawal threshold); experiment: Spinal nerve ligation (SNL) model of neuropathic pain; type: in vivo, rats
Protocol: DDD-028 was evaluated in spinal nerve ligation (SNL) model of neuropathic pain in rats as described by Kim et al., which is incorporated herein in its entirety. DDD-028 was prepared as a suspension (1.0 mg/mL) in 5% PEG/5% Tween-80/90% saline; and pregabalin (reference compound, positive control) was prepared as a solution in normal saline (7.9 mg/mL). Both compounds were administered to the animals via oral gavage to a final dose of 5.0 mg/kg (17.4 gmol/kg) for DDD-028; and 39.0 mg/kg (250.2 gmol/kg) for pregabalin. Control animals received the vehicle (5% PEG/5% Tween-80/90% saline). Mechanical allodynia was measured by the up and down method using calibrated von Frey filaments (Linton Instruments). Eighteen male CD rats were used in this study. The animals were divided into three groups (vehicle, DDD-028, and pregabalin) containing 6 animals in each group. Baseline PWT measurements (pre-surgery) of the left-hind paw of each animal in the group were taken prior to spinal nerve ligation. Thereafter, the rats were anesthetized using 1-3% isofluorane, and the L5 spinal nerve was isolated and ligated tightly using silk thread. Peak mechano-allodynia generally develops by day 7 following surgery. After 7 days post-surgery, PWT measurements were taken for each animal to determine the extent of mechanical allodynia. Animals were then weighed, allocated to the treatment group, and administered the test compound, DDD-028, the reference compound, pregabalin, or the vehicle. PWT's were measured at 15 min, 30 min, 60 min, 120 min, and 180 min following administration of the drugs or vehicle.

Sequence of Sigma σ2 receptor (Q5BJF2 whole entry): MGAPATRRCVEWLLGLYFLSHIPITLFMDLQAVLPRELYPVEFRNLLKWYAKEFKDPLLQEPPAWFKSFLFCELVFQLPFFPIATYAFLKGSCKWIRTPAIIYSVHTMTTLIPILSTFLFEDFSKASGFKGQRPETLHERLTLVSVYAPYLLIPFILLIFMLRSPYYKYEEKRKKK

COc1ccc2c(c1)c(CC(=O)O)c(C)n2C(=O)c1ccc(Cl)cc1 [indomethacin, reference compound]
adverse effects ([1]; 2 hours post-administration): mild sedation

CC(C)C[C@H](CN)CC(=O)O [pregabalin, reference compound]
adverse effects ([2]; as printed in Example 5 (CCI), 1-3 hours post-administration): mild sedation

CN1CCc2c(c3cccc4c3n2CCc2ccccc2-4)C1 [Compound 13]
Ki (Sigma σ2 receptor): 312 nM | effect on PWT in contralateral paws ([2]; mice, CCI, 1.0 mg/kg oral or 0.3 mg/kg intrathecal): no effect | time of maximal effect on mechano-allodynia ([2]; mice, CCI, hydrochloride salt, 1.0 mg/kg oral or 0.3 mg/kg intrathecal): ≤ 30 min | adverse effects ([3]; rat, in vivo, po, 5 mg/kg): No adverse effects were evident | time of maximal anti-nociceptive effect ([3]; rats, SNL, 5.0 mg/kg oral): about 60 minutes | potency relative to pregabalin ([3]; rats, SNL, DDD-028 5.0 mg/kg vs pregabalin […], oral): about 5 fold | adverse effects ([1]; oral): No adverse effects were evident | potency relative to indomethacin ([1]; oral): about 5 fold | time of maximal anti-nociceptive effect ([1]; oral): about 60 minutes
